The target of this experiment is TrkA (Homo sapiens (Human), UniProt P04629). Briefly: TrkA kinase HTRF enzyme inhibition assay. Type of experiment: biochemical. The conditions noted are these: TrkA pre-incubated with 200 μM ATP. The procedure, abridged: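 TrkA (2-10 nM) pre-activated 20 min with 200 μM ATP in HEPES pH 7.4/Mg/Mn buffer, compound added for 10 min, then biotinylated LCK-analog peptide (125 nM) for 1 h at ambient temperature. HTRF phosphotyrosine detection (665/620 ratio); duplicate half-log dilutions, IC50 from initial-rate inhibition via equation 1.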
Background: Time-resolved FRET reads energy transfer from a long-lived donor to a nearby acceptor.

pIC50: −log10 of the molar value.

Usually pIC50 stands for −log10 of the IC50, conventionally taken in molar units. The low end stands for a large IC50, the high end for a small IC50.

Chain of TrkA (P04629 33-796): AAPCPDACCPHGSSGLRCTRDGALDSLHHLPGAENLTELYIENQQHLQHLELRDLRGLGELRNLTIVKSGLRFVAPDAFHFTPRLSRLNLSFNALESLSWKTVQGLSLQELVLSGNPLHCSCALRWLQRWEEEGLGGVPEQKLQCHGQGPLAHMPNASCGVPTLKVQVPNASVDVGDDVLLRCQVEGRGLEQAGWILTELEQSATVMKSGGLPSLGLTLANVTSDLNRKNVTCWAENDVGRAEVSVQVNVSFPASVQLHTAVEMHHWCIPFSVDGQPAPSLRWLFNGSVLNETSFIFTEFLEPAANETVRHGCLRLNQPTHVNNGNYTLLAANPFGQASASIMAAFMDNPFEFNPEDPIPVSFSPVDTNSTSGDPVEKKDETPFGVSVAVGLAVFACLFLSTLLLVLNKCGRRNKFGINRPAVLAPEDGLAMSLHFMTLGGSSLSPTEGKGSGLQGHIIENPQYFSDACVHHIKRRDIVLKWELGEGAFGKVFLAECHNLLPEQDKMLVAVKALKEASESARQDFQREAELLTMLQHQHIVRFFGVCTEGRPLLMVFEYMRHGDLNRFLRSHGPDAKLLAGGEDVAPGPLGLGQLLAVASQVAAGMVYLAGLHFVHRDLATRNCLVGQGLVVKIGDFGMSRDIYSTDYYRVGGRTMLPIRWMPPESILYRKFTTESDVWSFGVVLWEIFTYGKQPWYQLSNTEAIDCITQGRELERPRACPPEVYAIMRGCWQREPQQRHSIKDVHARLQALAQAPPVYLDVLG

Compound `CCOc1nc(N2CCN(C(C)=O)CC2)ccc1NC(=O)c1coc2c1C(=O)NC1(CC1)C2` [Example 117, N-[6-(4-acetylpiperazin-1-yl)-2-ethoxypyridin-3-yl]-4′-oxo-4′,7′-dihydro-5′H-spiro[cyclopropane-1,6′-furo[3,2-c]pyridine]-3′-carboxamide] had a negative logarithm of the IC50 (pIC50) of 8.28.
As for `CCOc1nc(N2CCN(C(C)=O)CC2)ccc1NC(=O)c1coc2c1C(=O)N(CCOC)CC2` [Example 84, N-[6-(4-acetylpiperazin-1-yl)-2-ethoxypyridin-3-yl]-5-(2-methoxyethyl)-4-oxo-4,5,6,7-tetrahydrofuro[3,2-c]pyridine-3-carboxamide], the figure is 8.28; as for `CN1CCN(CCn2cc3cc(NC(=O)c4coc5c4C(=O)NCC5)ccc3n2)CC1` [Example 52, N-{2-[2-(4-methylpiperazin-1-yl)ethyl]-2H-indazol-5-yl}-4-oxo-4,5,6,7-tetrahydrofuro[3,2-c]pyridine-3-carboxamide], 7.74; as for `CC(C)Oc1nc(N2C[C@@H]3CCN(CCO)[C@@H]3C2)ccc1NC(=O)c1coc2c1C(=O)NC(C)(C)C2` [Example 131, N-{6-[(3aS,6aS)-1-(2-hydroxyethyl)hexahydropyrrolo[3,4-b]pyrrol-5(1H)-yl]-2-isopropoxypyridin-3-yl}-6,6-dimethyl-4-oxo-4,5,6,7-tetrahydrofuro[3,2-c]pyridine-3-carboxamide], 7.01.
In turn, `CN1CCc2occ(C(=O)Nc3ccc4[nH]cnc4c3)c2C1=O` [Example 27, N-(1H-benzimidazol-5-yl)-5-methyl-4-oxo-4,5,6,7-tetrahydrofuro[3,2-c]pyridine-3-carboxamide] gave a pIC50 of 6.37.
`CC(C)(O)COc1nc(N2CCOCC2)ccc1NC(=O)c1coc2c1C(=O)NCC2` [Example 107, N-[2-(2-hydroxy-2-methylpropoxy)-6-(morpholin-4-yl)pyridin-3-yl]-4-oxo-4,5,6,7-tetrahydrofuro[3,2-c]pyridine-3-carboxamide]: the pIC50 is 8.16.
As for `COc1nc(N2CCN(C(C)=O)CC2)ccc1NC(=O)c1coc2c1C(=O)C(C)(C)OC2` [Example 171, N-[6-(4-acetylpiperazin-1-yl)-2-methoxypyridin-3-yl]-5,5-dimethyl-4-oxo-4,7-dihydro-5H-furo[2,3-c]pyran-3-carboxamide], the figure is 8.54.
As to `COc1cc(N2CCN(C(=O)N3CCCC3)CC2)ccc1NC(=O)c1coc2c1C(=O)NCC2` [Example 80, N-{2-methoxy-4-[4-(pyrrolidin-1-ylcarbonyl)piperazin-1-yl]phenyl}-4-oxo-4,5,6,7-tetrahydrofuro[3,2-c]pyridine-3-carboxamide], the pIC50 is 7.17.
As for `COC(=O)C1(C)CC(=O)c2c(C(=O)Nc3ccc4nn(C)cc4c3)coc2C1` (stereo not drawn) [Example 163, methyl 6-methyl-3-[(2-methyl-2H-indazol-5-yl)carbamoyl]-4-oxo-4,5,6,7-tetrahydro-1-benzofuran-6-carboxylate], the figure is 6.81.
In the case of `CCOc1nc(N2CCN(C(C)=O)CC2)ccc1NC(=O)c1coc2c1C(=O)N(CCOC)C(C)(C)C2` [Example 175, N-[6-(4-acetylpiperazin-1-yl)-2-ethoxypyridin-3-yl]-5-(2-methoxyethyl)-6,6-dimethyl-4-oxo-4,5,6,7-tetrahydrofuro[3,2-c]pyridine-3-carboxamide] it was 8.33; in that of `Cc1nc2cc(NC(=O)c3coc4c3C(=O)N(C)CC4)ccc2[nH]1` [Example 78, 5-methyl-N-(2-methyl-1H-benzimidazol-5-yl)-4-oxo-4,5,6,7-tetrahydrofuro[3,2-c]pyridine-3-carboxamide], 6.63; in that of `O=C(Nc1ccc2ncccc2c1)c1coc2c1C(=O)NCC2` [Example 33, 4-oxo-N-(quinolin-6-yl)-4,5,6,7-tetrahydrofuro[3,2-c]pyridine-3-carboxamide], 6.95.
`Cn1ncc2cc(NC(=O)c3coc4c3C(=O)NCC4)ccc21` [Example 11, N-(1-methyl-1H-indazol-5-yl)-4-oxo-4,5,6,7-tetrahydrofuro[3,2-c]pyridine-3-carboxamide]: the negative logarithm of the IC50 (pIC50) is 7.19.
As for `CC(=O)N1CCN(c2ccc(NC(=O)c3coc4c3C(=O)NCC4)c(O[C@H]3CCOC3)n2)CC1` [Example 105, N-{6-(4-acetylpiperazin-1-yl)-2-[(3S)-tetrahydrofuran-3-yloxy]pyridin-3-yl}-4-oxo-4,5,6,7-tetrahydrofuro[3,2-c]pyridine-3-carboxamide], the figure is 7.63; as for `CN1CCc2occ(C(=O)Nc3cccc(C#N)c3)c2C1=O` [Example 71, N-(3-cyanophenyl)-5-methyl-4-oxo-4,5,6,7-tetrahydrofuro[3,2-c]pyridine-3-carboxamide], 5.44; as for `CC(O)Cn1cc2cc(NC(=O)c3coc4c3C(=O)NCC4)ccc2n1` (stereo not drawn) [Example 55, N-[2-(2-hydroxypropyl)-2H-indazol-5-yl]-4-oxo-4,5,6,7-tetrahydrofuro[3,2-c]pyridine-3-carboxamide], 7.68.
In the case of `Cc1nc2ccc(NC(=O)c3coc4c3C(=O)N(C)CC4)cc2s1` [Example 29, 5-methyl-N-(2-methyl-1,3-benzothiazol-6-yl)-4-oxo-4,5,6,7-tetrahydrofuro[3,2-c]pyridine-3-carboxamide] it was 6.77; in that of `CCOc1nc(N2CCN(C(C)=O)CC2)ccc1NC(=O)c1coc2c1C(=O)N(CC(C)(C)OC(C)=O)CC2` [Example 103, 1-[3-{[6-(4-acetylpiperazin-1-yl)-2-ethoxypyridin-3-yl]carbamoyl}-4-oxo-6,7-dihydrofuro[3,2-c]pyridin-5(4H)-yl]-2-methylpropan-2-yl acetate], 7.77.
`CCOc1nc(N2CCN(C(C)=O)CC2)ccc1NC(=O)c1coc2c1C(=O)N(CCOCCO)CC2` [Example 91, N-[6-(4-acetylpiperazin-1-yl)-2-ethoxypyridin-3-yl]-5-[2-(2-hydroxyethoxyl)ethyl]-4-oxo-4,5,6,7-tetrahydrofuro[3,2-c]pyridine-3-carboxamide] had a pIC50 of 8.15.
In the case of `COc1ccc(NC(=O)c2coc3c2C(=O)N(C)CC3)cn1` [Example 69, N-(6-methoxypyridin-3-yl)-5-methyl-4-oxo-4,5,6,7-tetrahydrofuro[3,2-c]pyridine-3-carboxamide] it was 5.36; in that of `CCOc1nc(N2CCN(C(C)=O)CC2)ccc1NC(=O)c1coc2c1C(=O)N([C@@H](C)CO)CC2` [Example 101, N-[6-(4-acetylpiperazin-1-yl)-2-ethoxypyridin-3-yl]-5-[(2S)-1-hydroxypropan-2-yl]-4-oxo-4,5,6,7-tetrahydrofuro[3,2-c]pyridine-3-carboxamide], 7.71; in that of `COCCOc1nc(N2CCN(C=O)CC2)ccc1NC(=O)c1coc2c1C(=O)NC(C)(C)C2` [Example 182, N-[6-(4-formylpiperazin-1-yl)-2-(2-methoxyethoxyl)pyridin-3-yl]-6,6-dimethyl-4-oxo-4,5,6,7-tetrahydrofuro[3,2-c]pyridine-3-carboxamide], 7.75.
As for `COc1nc(N2CC[C@@H]3CN(C)C[C@@H]32)ccc1NC(=O)c1coc2c1C(=O)NC(C)(C)C2` [Example 130, N-{2-methoxy-6-[(3aR,6aR)-5-methylhexahydropyrrolo[3,4-b]pyrrol-1 (2H)-yl]pyridin-3-yl}-6,6-dimethyl-4-oxo-4,5,6,7-tetrahydrofuro[3,2-c]pyridine-3-carboxamide], the figure is 7.42.
As for `CCOc1nc(C(=O)O)ccc1NC(=O)c1coc2c1C(=O)N(CCOC)C(C)(C)C2` [Example 145, 6-ethoxy-5-({[5-(2-methoxyethyl)-6,6-dimethyl-4-oxo-4,5,6,7-tetrahydrofuro[3,2-c]pyridin-3-yl]carbonyl}amino)pyridine-2-carboxylic acid], the figure is 8.10; as for `CCOc1nc(N2CCN(C(C)=O)CC2)ccc1NC(=O)c1coc2c1C(=O)N(CCCCO)CC2` [Example 90, N-[6-(4-acetylpiperazin-1-yl)-2-ethoxypyridin-3-yl]-5-(4-hydroxybutyl)-4-oxo-4,5,6,7-tetrahydrofuro[3,2-c]pyridine-3-carboxamide], 8.33.
Compound `CC(=O)N1CCN(c2ccc(NC(=O)c3coc4c3C(=O)NC(C)(C)C4)c(OCC(F)(F)F)n2)CC1` [Example 178, N-[6-(4-acetylpiperazin-1-yl)-2-(2,2,2-trifluoroethoxyl)pyridin-3-yl]-6,6-dimethyl-4-oxo-4,5,6,7-tetrahydrofuro[3,2-c]pyridine-3-carboxamide] showed a pIC50 of 8.28.
In the case of `CS(=O)(=O)NCCn1cc2cc(NC(=O)c3coc4c3C(=O)NCC4)ccc2n1` [Example 51, N-(2-{2-[(methylsulfonyl)amino]ethyl}-2H-indazol-5-yl)-4-oxo-4,5,6,7-tetrahydrofuro[3,2-c]pyridine-3-carboxamide] it was 7.72.
